For two compounds, Kd results are on record in publication PMC5379069, “A Pseudomonas T6SS effector recruits PQS-containing outer membrane vesicles for iron acquisition” (Nature Communications, 2017).

For experiment [1], the target named is T1, TseF (PA2374) (Pseudomonas aeruginosa, UniProt Q9I1A5). Put plainly: ITC; also fat western blot. The format is binding.
For experiment [2], the target named is T1, TseF (PA2374). Put plainly: ITC; also immobilized-PQS pull-down and fat western blot; Kd […] with Fe3+. The format is binding.

T1 sequence (Q9I1A5 entry or part of it): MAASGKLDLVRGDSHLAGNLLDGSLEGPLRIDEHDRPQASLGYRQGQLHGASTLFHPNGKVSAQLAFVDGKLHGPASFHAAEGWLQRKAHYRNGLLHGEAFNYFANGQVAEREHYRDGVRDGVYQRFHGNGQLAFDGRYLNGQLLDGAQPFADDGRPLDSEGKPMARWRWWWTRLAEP

The compound `CCCCCCCc1cc(O)c2ccccc2n1` [HHQ, 4-hydroxy-2-heptylquinoline] had a Kd in experiment [1] of 25.7 µM.
In experiment [2], `CCCCCCCc1[nH]c2ccccc2c(=O)c1O` [PQS, 2-heptyl-3-hydroxy-4-quinolone] gave a Kd of 0.33 µM.
